Consider 6 compounds from publication PMC6668024 (Journal of medicinal chemistry, 2018).

The target in one data set is T1, Topo I (Homo sapiens, UniProt P11387).
T1 sequence (P11387 1-765): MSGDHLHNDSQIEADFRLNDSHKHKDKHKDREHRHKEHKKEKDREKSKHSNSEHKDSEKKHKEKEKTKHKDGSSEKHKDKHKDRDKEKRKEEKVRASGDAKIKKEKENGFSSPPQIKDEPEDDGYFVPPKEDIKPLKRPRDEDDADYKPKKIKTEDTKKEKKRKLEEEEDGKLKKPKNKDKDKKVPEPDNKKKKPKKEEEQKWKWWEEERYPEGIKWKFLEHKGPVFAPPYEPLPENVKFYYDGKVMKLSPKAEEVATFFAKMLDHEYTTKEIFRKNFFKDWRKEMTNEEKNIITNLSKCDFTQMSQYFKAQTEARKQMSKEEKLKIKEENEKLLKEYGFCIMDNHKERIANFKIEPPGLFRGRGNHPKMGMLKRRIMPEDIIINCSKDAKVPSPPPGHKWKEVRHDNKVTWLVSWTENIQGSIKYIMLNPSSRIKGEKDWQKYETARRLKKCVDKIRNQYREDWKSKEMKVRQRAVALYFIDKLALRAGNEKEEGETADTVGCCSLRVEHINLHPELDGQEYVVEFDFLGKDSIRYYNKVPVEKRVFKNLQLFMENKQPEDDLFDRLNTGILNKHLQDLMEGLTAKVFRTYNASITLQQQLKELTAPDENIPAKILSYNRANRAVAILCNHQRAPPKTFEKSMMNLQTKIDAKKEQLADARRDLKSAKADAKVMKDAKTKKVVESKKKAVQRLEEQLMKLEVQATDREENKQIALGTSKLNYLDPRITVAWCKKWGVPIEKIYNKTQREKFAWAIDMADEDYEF
Description: Topo I inhibitory activity assay. The class given is biochemical.

The next data set deals with BEL-7402. The data set is described as follows: MTT cytotoxicity assay, BEL-7402. The class given is cell-based, human. Particulars: BEL-7402, MTT, 48 h. (Tetrazolium assays rely on reduction of a dye to a coloured formazan, in cell work by metabolically active cells.)
For the next data set, the system named is MGC80-3. The data set is described as follows: MTT cytotoxicity assay, MGC80-3. The class given is cell-based, human. Particulars: MGC80-3, MTT, 48 h.
The next data set deals with KB. Description: MTT cytotoxicity assay, KB. The class given is cell-based, human. Particulars: 48 h.
A further data set has as its system SMMC-7721. The data set is described as follows: MTT cytotoxicity assay, SMMC-7721. Format: cell-based, human. Particulars: SMMC-7721, MTT, 48 h.
In the next data set the test system is SK-N-SH. Description: MTT cytotoxicity assay, SK-N-SH. Format: cell-based, human. The settings on record: 48 h.
In a further data set the test system is A549. Description: MTT cytotoxicity assay, A549. Format: cell-based, human. The settings on record: 48 h.
For the next data set, the system named is SGC-7901. The data set is described as follows: MTT cytotoxicity assay, SGC-7901. Particulars: SGC-7901, MTT, 48 h. The class given is cell-based, human.
A further data set concerns MDA-MB-231. The data set is described as follows: MTT cytotoxicity assay, MDA-MB-231. Format: cell-based, human. Particulars: MDA-MB-231, MTT, 48 h.
In a further data set the test system is QGY-7703. Description: MTT cytotoxicity assay, QGY-7703. The class given is cell-based, human. Particulars: QGY-7703, MTT, 48 h.
The next data set is described as follows: Aqueous solubility. Particulars: parental compounds.
A further data set has as its system HepG-2. Description: MTT cytotoxicity assay, HepG-2. The class given is cell-based, human. The settings on record: HepG-2, MTT, 48 h.
The subject of a further data set is MCF-7. Description: MTT cytotoxicity assay, MCF-7. Format: cell-based, human. The settings on record: MCF-7, MTT, 48 h.
The nature of data set [1]: In vivo pharmacokinetics, plasma levels by LC-MS/MS. Details: species or system male C57BL/6 mice. Particulars: for parent compound (4 or 3) in plasma after i.v. dosing of the ester: 2 mg/kg intravenously.
The target in data set [2] is T2, Topo I-DNA cleavage complex (Homo sapiens, UniProt P11387).
T2 sequence (P11387 1-765): T1 sequence (P11387 1-765)
Description: Topo I-mediated DNA cleavage assay. The class given is biochemical. Particulars: EB-containing gel; for Topo I-mediated DNA cleavage (amount of nicked DNA): 100 μM or 50 μM.

Another data set relates to IL-6. Description: IL-6 in serum, LPS sepsis model. The class given is in vivo, C57BL/6 mice. The settings on record: serum 72 h after LPS.
For data set [3] the following is noted: for body weight of treated mice: HepG-2 xenograft mice, treatment for 30 days, doses as in Figure 5.
The subject of a further data set is TNF-α. Description: TNF-α in serum, LPS sepsis model. The class given is in vivo, C57BL/6 mice. Particulars: serum 72 h after LPS.
Where [4] appears, read: 50 μM and 100 μM, EB-free gel (Figure 3a, 3b).

The term IC50 denotes the midpoint of a concentration-inhibition curve. Broadly, the aqueous solubility is the dissolved amount per volume that the medium holds. As for “(9S)-9-Ethyl-9-hydroxy-3-isopropyl-2,3-dihydro-[1,3]oxazino[5,6-f]pyrano[3',4':6,7]indolizino[1,2-b]quinoline-1,10,13(9H,12H,15H)-trione [Compound 3]”, on Topo I (50 μM, EB-free gel (Figure 4)), the “Topo I inhibitory activity” value is recorded as “high”. The 50% inhibitory concentration (IC50) was over 10 µM with BEL-7402; 0.39 µM in the data set on MGC80-3; 9.76 µM in the data set with KB; over 10 µM in the data set on SMMC-7721; 0.325 µM with SK-N-SH; 2.17 µM in the data set with A549. Moreover, the IC50 in the data set with SGC-7901 is over 10 µM; in the data set with MDA-MB-231, 1.32 µM; in the data set on QGY-7703 it was over 10 µM; in the data set with HepG-2, 1.11 µM; with MCF-7 it was 10.8 µM. In the data set “Aqueous solubility”, the aqueous solubility was under 2 µg/mL.

With `CC[C@@]1(OC(=O)CNC(=O)CCC(=O)O)C(=O)OCc2c1cc1n(c2=O)Cc2cc3c4c(ccc3nc2-1)OC(C(C)C)NC4=O` (stereo partly drawn) [Compound 11, 4-((2-(((9S)-9-Ethyl-3-isopropyl-1,10,13-trioxo-1,2,3,9,10,12,13,15-octahydro-[1,3]oxazino[5,6-f]pyrano[3',4':6,7]indolizino[1,2-b]quinolin-9-yl)oxy)-2-oxoethyl)amino)-4-oxobutanoic acid], on Topo I (setting [4]), the “Topo I inhibitory activity” value is “almost inactive”. Besides, the “parent compound (4 or 3) in plasma after i.v. dosing of the ester” value in data set [1] (mice) is listed as “very low concentration”. For the same compound, the “concentration in plasma through oral administration” value in data set [1] (mouse, in vivo, po) is on record as “extremely low”. In addition, the “Topo I-mediated DNA cleavage (stabilization of cleavage complex)” value in data set [2] (50 μM) was “failed to stabilize Topo I-DNA cleavage complex”. For the same compound, the “expression of IL-6 in mouse serum” value in the data set with IL-6 was “suppressed”. The “body weight of treated mice” value in data set [3] is “no major influence on body weight”. For the same compound, the “side effects, pathological anatomy of viscera” value in [3] (oral administration compared with the i.v. dosage) is recorded as “increases the occurrence of gastrointestinal flatulence”. Also, the “expression of TNF-α in mouse serum” value with TNF-α was “suppressed”.

As for `CC[C@@]1(OC(=O)CNC(=O)CCC(=O)O)C(=O)OCc2c1cc1n(c2=O)Cc2cc3c(ccc4oc(C(C)C)nc43)nc2-1` [Compound 9, (S)-4-((2-((8-Ethyl-2-isopropyl-9,12-dioxo-9,11,12,14-tetrahydro-8H-oxazolo[4,5-f]pyrano[3',4':6,7]indolizno[1,2-b]quinolin-8-yl)oxy)-2-oxoethyl)amino)-4-oxobutanoic acid], the “Topo I inhibitory activity” value at Topo I (setting [4]) was “weak inhibition”. Moreover, in [1] (mice), the “parent compound (4 or 3) in plasma after i.v. dosing of the ester” value was “not detected”. Also, in data set [1] (single oral administration, mice), the “concentration in plasma through oral administration” value was “extremely low”. The “Topo I-mediated DNA cleavage (amount of nicked DNA)” value in [2] is reported as “can increase the amount of nicked DNA”. Further, the “expression of IL-6 in mouse serum” value in the data set on IL-6 is reported as “suppressed”. Further, the “body weight of treated mice” value in data set [3] is listed as “no major influence on body weight”. Moreover, in data set [3] (daily oral dose 5 mg/kg), the “survival of xenograft mice on oral dosing” value is on record as “most mice failed to reach the end point”. The “expression of TNF-α in mouse serum” value with TNF-α is reported as “suppressed”.

In general, solubility refers to how much of the substance goes into solution per volume. As for `CC[C@@]1(O)C(=O)OCc2c1cc1n(c2=O)Cc2cc3c(ccc4oc(C(C)C)nc43)nc2-1` [Compound 4, (S)-8-Ethyl-8-hydroxy-2-isopropyl-8H-oxazolo[4,5-f]pyrano[3',4':6,7]indolizino[1,2-b]quinoline-9,12(11H,14H)-dione], on Topo I (50 μM, EB-free gel (Figure 4)), the “Topo I inhibitory activity” value is given as “weak inhibitor”. The solubility in the data set “physchem” is under 2 µg/mL.

Regarding `CC[C@@]1(O)C(=O)OCc2c1cc1n(c2=O)Cc2cc3c(CN(C)C)c(O)ccc3nc2-1` [Topotecan, reference compound], in [2], the “Topo I-mediated DNA cleavage (amount of nicked DNA)” value is “can increase the amount of nicked DNA”.

For the compound `CC[C@@]1(O)C(=O)OCc2c1cc1n(c2=O)Cc2cc3ccccc3nc2-1` [CPT, Camptothecin, reference compound], the “Topo I inhibitory activity” value at Topo I (setting [4]) is given as “can inhibit Topo I activity”. Moreover, the “Topo I-mediated DNA cleavage (amount of nicked DNA)” value in data set [2] is “can increase the amount of nicked DNA”.
